# Reference: US20260262643A1, “HERBICIDAL BENZOXAZINES” (FMC CORPORATION, priority 2022, published 2026)
# How the values were obtained:
# blackgrass [1] = experiment: Test C preemergence; format: in vivo, Alopecurus myosuroides; conditions: 0 to 100 scale (0 no effect, 100 complete control); for Plant response rating, Blackgrass: Preemergence, 500 g ai/ha, visual rating after 10 days; for Blackgrass plant response rating: Test C, preemergence, 125 g ai/ha
# Summary of the method: (§1)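 Pre: seeds in loam/sand, directed soil spray. Post: 1–2 leaf plants, 2–10 cm. Cmpd in non-phytotoxic solvent + surfactant. Greenhouse 10 d; visual rating vs untreated, 0 = none, 100 = complete control.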
# ducksalad = experiment: Test D flooded paddy test; format: in vivo, Heteranthera limosa; conditions: 250 g ai/ha, applied to paddy water, visual rating after 13 to 14 days, scale 0 to 100 (0 no effect, 100 complete control)
# Summary of the method: (§2)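 Post-flood water application at the 2-leaf stage; 3 cm flood depth kept constant; visual control rating 0–100 after 13–14 days greenhouse growth.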
# ryegrass, Italian [2] = experiment: Test C postemergence; format: in vivo, Lolium multiflorum; conditions: 10 days
# Summary of the method: as §1
# sedge, umbrella = experiment: Test D flooded paddy test; format: in vivo, Cyperus difformis; conditions: 250 g ai/ha, applied to paddy water, visual rating after 13 to 14 days, scale 0 to 100 (0 no effect, 100 complete control)
# Summary of the method: as §2
# ragweed [3] = experiment: Test C preemergence; format: in vivo, Ambrosia artemisiifolia; conditions: 0 to 100 scale (0 no effect, 100 complete control); for Plant response rating, Ragweed: Preemergence, 500 g ai/ha, visual rating after 10 days; for Ragweed plant response rating: Test C, preemergence, 125 g ai/ha
# Summary of the method: as §1
# wheat [4] = experiment: Test C postemergence; format: in vivo, Triticum aestivum; conditions: 10 days
# Summary of the method: as §1
# ryegrass, Italian [5] = experiment: Test C preemergence; format: in vivo, Lolium multiflorum; conditions: 0 to 100 scale (0 no effect, 100 complete control); for Plant response rating, Ryegrass, Italian: Preemergence, 500 g ai/ha, visual rating after 10 days; for Ryegrass, Italian plant response rating: Test C, preemergence, 125 g ai/ha
# Summary of the method: as §1
# blackgrass [6] = experiment: Test C postemergence; format: in vivo, Alopecurus myosuroides; conditions: 10 days
# Summary of the method: as §1
# corn [7] = experiment: Test C preemergence; format: in vivo, Zea mays; conditions: 0 to 100 scale (0 no effect, 100 complete control); for Plant response rating, Corn: Preemergence, 500 g ai/ha, visual rating after 10 days; for Corn plant response rating: Test C, preemergence, 125 g ai/ha
# Summary of the method: as §1
# barnyardgrass [8] = experiment: Test C preemergence; format: in vivo, Echinochloa crusgalli; conditions: 0 to 100 scale (0 no effect, 100 complete control); for Plant response rating, Barnyardgrass: Preemergence, 500 g ai/ha, visual rating after 10 days; for Barnyardgrass plant response rating: Test C, preemergence, 125 g ai/ha
# Summary of the method: as §1
# kochia [9] = experiment: Test C postemergence; format: in vivo, Bassia scoparia; conditions: 10 days
# Summary of the method: as §1
# barnyardgrass [10] = experiment: Test D flooded paddy test; format: in vivo, Echinochloa crus-galli; conditions: 250 g ai/ha, applied to paddy water, visual rating after 13 to 14 days, scale 0 to 100 (0 no effect, 100 complete control)
# Summary of the method: as §2
# galium = experiment: Test C postemergence; format: in vivo, Galium aparine; conditions: 10 days
# Summary of the method: as §1
# green foxtail [11] = experiment: Test C preemergence; format: in vivo, Setaria viridis; conditions: 0 to 100 scale (0 no effect, 100 complete control); for Plant response rating, Foxtail, Green: Preemergence, 500 g ai/ha, visual rating after 10 days; for Foxtail, Green plant response rating: Test C, preemergence, 125 g ai/ha
# Summary of the method: as §1
# wheat [12] = experiment: Test C preemergence; format: in vivo, Triticum aestivum; conditions: 0 to 100 scale (0 no effect, 100 complete control); for Plant response rating, Wheat: Preemergence, 500 g ai/ha, visual rating after 10 days; for Wheat plant response rating: Test C, preemergence, 125 g ai/ha
# Summary of the method: as §1
# pigweed, palmer [13] = experiment: Test C postemergence; format: in vivo, Amaranthus palmeri; conditions: 10 days
# Summary of the method: as §1
# oat, wild [14] = experiment: Test C preemergence; format: in vivo, Avena fatua; conditions: 0 to 100 scale (0 no effect, 100 complete control); for Plant response rating, Oat, Wild: Preemergence, 500 g ai/ha, visual rating after 10 days; for Oat, Wild plant response rating: Test C, preemergence, 125 g ai/ha
# Summary of the method: as §1
# pigweed, palmer [15] = experiment: Test C preemergence; format: in vivo, Amaranthus palmeri; conditions: 0 to 100 scale (0 no effect, 100 complete control); for Plant response rating, Pigweed, Palmer: Preemergence, 500 g ai/ha, visual rating after 10 days; for Pigweed, Palmer plant response rating: Test C, preemergence, 125 g ai/ha
# Summary of the method: as §1
# green foxtail [16] = experiment: Test C postemergence; format: in vivo, Setaria viridis; conditions: 10 days
# Summary of the method: as §1
# soybean [17] = experiment: Test C postemergence; format: in vivo, Glycine max; conditions: 10 days
# Summary of the method: as §1
# rice = experiment: Test D flooded paddy test; format: in vivo, Oryza sativa; conditions: 250 g ai/ha, applied to paddy water, visual rating after 13 to 14 days, scale 0 to 100 (0 no effect, 100 complete control)
# Summary of the method: as §2
# horseweed = experiment: Test C postemergence; format: in vivo, Erigeron canadensis; conditions: 10 days
# Summary of the method: as §1
# kochia [18] = experiment: Test C preemergence; format: in vivo, Bassia scoparia; conditions: 0 to 100 scale (0 no effect, 100 complete control); for Plant response rating, Kochia: Preemergence, 500 g ai/ha, visual rating after 10 days; for Kochia plant response rating: Test C, preemergence, 125 g ai/ha
# Summary of the method: as §1
# barnyardgrass [19] = experiment: Test C postemergence; format: in vivo, Echinochloa crusgalli; conditions: 10 days
# Summary of the method: as §1
# soybean [20] = experiment: Test C preemergence; format: in vivo, Glycine max; conditions: 0 to 100 scale (0 no effect, 100 complete control); for Plant response rating, Soybean: Preemergence, 500 g ai/ha, visual rating after 10 days; for Soybean plant response rating: Test C, preemergence, 125 g ai/ha
# Summary of the method: as §1
# corn [21] = experiment: Test C postemergence; format: in vivo, Zea mays; conditions: 10 days
# Summary of the method: as §1
# ragweed [22] = experiment: Test C postemergence; format: in vivo, Ambrosia artemisiifolia; conditions: 10 days
# Summary of the method: as §1
# oat, wild [23] = experiment: Test C postemergence; format: in vivo, Avena fatua; conditions: 10 days
# Summary of the method: as §1
# [24] = 125 g ai/ha, postemergence, 0 to 100 scale, 0 no effect, 100 complete control
# [25] = Postemergence, 500 g ai/ha, visual 0 to 100 scale (0 no effect, 100 complete control)
smiles,measurement,setting,value
Cc1ccc(-n2cnc(C(C)(F)F)n2)cc1C(=O)N1C[C@H](C)Oc2c(Cl)cccc21 [Compound 248],"Plant response rating, Blackgrass",blackgrass [1],70
same,Blackgrass plant response rating,blackgrass [1],30
same,"Plant response rating, Ducksalad (Flood)",ducksalad,0
same,"Plant response rating, Ryegrass, Italian","ryegrass, Italian [2]; [24]",90
same,"Plant response rating, Ryegrass, Italian","ryegrass, Italian [2]; [25]",100
same,"Plant response rating, Sedge, Umbrella (Flood)","sedge, umbrella",0
same,"Plant response rating, Ragweed",ragweed [3],90
same,Ragweed plant response rating,ragweed [3],80
same,"Plant response rating, Wheat",wheat [4]; [24],30
same,"Plant response rating, Wheat",wheat [4]; [25],90
same,"Plant response rating, Ryegrass, Italian","ryegrass, Italian [5]",100
same,"Ryegrass, Italian plant response rating","ryegrass, Italian [5]",90
same,"Plant response rating, Blackgrass",blackgrass [6]; [24],90
same,"Plant response rating, Blackgrass",blackgrass [6]; [25],100
same,"Plant response rating, Corn",corn [7],50
same,Corn plant response rating,corn [7],20
same,"Plant response rating, Barnyardgrass",barnyardgrass [8],100
same,Barnyardgrass plant response rating,barnyardgrass [8],100
same,"Plant response rating, Kochia",kochia [9]; [24],90
same,"Plant response rating, Kochia",kochia [9]; [25],100
same,"Plant response rating, Barnyardgrass (Flood)",barnyardgrass [10],0
same,"Plant response rating, Galium",galium; [24],100
same,"Plant response rating, Foxtail, Green",green foxtail [11],100
same,"Foxtail, Green plant response rating",green foxtail [11],100
same,"Plant response rating, Wheat",wheat [12],90
same,Wheat plant response rating,wheat [12],40
same,"Plant response rating, Pigweed, Palmer","pigweed, palmer [13]; [24]",90
same,"Plant response rating, Pigweed, Palmer","pigweed, palmer [13]; [25]",100
same,"Plant response rating, Oat, Wild","oat, wild [14]",90
same,"Oat, Wild plant response rating","oat, wild [14]",40
same,"Plant response rating, Pigweed, Palmer","pigweed, palmer [15]",100
same,"Pigweed, Palmer plant response rating","pigweed, palmer [15]",100
same,"Plant response rating, Foxtail, Green",green foxtail [16]; [24],90
same,"Plant response rating, Foxtail, Green",green foxtail [16]; [25],90
same,"Plant response rating, Soybean",soybean [17]; [24],100
same,"Plant response rating, Soybean",soybean [17]; [25],100
same,"Plant response rating, Rice (Flood)",rice,0
same,"Plant response rating, Horseweed",horseweed; [24],10
same,"Plant response rating, Horseweed",horseweed; [25],40
same,"Plant response rating, Kochia",kochia [18],100
same,Kochia plant response rating,kochia [18],100
same,"Plant response rating, Barnyardgrass",barnyardgrass [19]; [24],50
same,"Plant response rating, Barnyardgrass",barnyardgrass [19]; [25],70
same,"Plant response rating, Soybean",soybean [20],100
same,Soybean plant response rating,soybean [20],60
same,"Plant response rating, Corn",corn [21]; [24],60
same,"Plant response rating, Corn",corn [21]; [25],70
same,"Plant response rating, Ragweed",ragweed [22]; [24],90
same,"Plant response rating, Ragweed",ragweed [22]; [25],90
same,"Plant response rating, Oat, Wild","oat, wild [23]; [24]",60
same,"Plant response rating, Oat, Wild","oat, wild [23]; [25]",70
Cc1cccc2c1O[C@@H](C)CN2C(=O)c1cc(-n2cnc(C(C)C)n2)cc2occc12 [Compound 195],"Plant response rating, Blackgrass",blackgrass [1],40
same,Blackgrass plant response rating,blackgrass [1],30
same,"Plant response rating, Ducksalad (Flood)",ducksalad,70
same,"Plant response rating, Ryegrass, Italian","ryegrass, Italian [2]; [24]",40
same,"Plant response rating, Ryegrass, Italian","ryegrass, Italian [2]; [25]",80
same,"Plant response rating, Sedge, Umbrella (Flood)","sedge, umbrella",98
same,"Plant response rating, Ragweed",ragweed [3],100
same,Ragweed plant response rating,ragweed [3],60
same,"Plant response rating, Wheat",wheat [4]; [24],20
same,"Plant response rating, Wheat",wheat [4]; [25],50
same,"Plant response rating, Ryegrass, Italian","ryegrass, Italian [5]",100
same,"Ryegrass, Italian plant response rating","ryegrass, Italian [5]",80
same,"Plant response rating, Blackgrass",blackgrass [6]; [24],50
same,"Plant response rating, Blackgrass",blackgrass [6]; [25],90
same,"Plant response rating, Corn",corn [7],0
same,Corn plant response rating,corn [7],0
same,"Plant response rating, Barnyardgrass",barnyardgrass [8],100
same,Barnyardgrass plant response rating,barnyardgrass [8],90
same,"Plant response rating, Kochia",kochia [9]; [24],90
same,"Plant response rating, Kochia",kochia [9]; [25],100
same,"Plant response rating, Barnyardgrass (Flood)",barnyardgrass [10],45
same,"Plant response rating, Galium",galium; [24],90
same,"Plant response rating, Galium",galium; [25],100
same,"Plant response rating, Foxtail, Green",green foxtail [11],100
same,"Foxtail, Green plant response rating",green foxtail [11],100
same,"Plant response rating, Wheat",wheat [12],80
same,Wheat plant response rating,wheat [12],0
same,"Plant response rating, Pigweed, Palmer","pigweed, palmer [13]; [24]",90
same,"Plant response rating, Pigweed, Palmer","pigweed, palmer [13]; [25]",100
same,"Plant response rating, Oat, Wild","oat, wild [14]",80
same,"Oat, Wild plant response rating","oat, wild [14]",20
same,"Plant response rating, Pigweed, Palmer","pigweed, palmer [15]",100
same,"Pigweed, Palmer plant response rating","pigweed, palmer [15]",100
same,"Plant response rating, Foxtail, Green",green foxtail [16]; [24],50
same,"Plant response rating, Foxtail, Green",green foxtail [16]; [25],90
same,"Plant response rating, Soybean",soybean [17]; [24],100
same,"Plant response rating, Soybean",soybean [17]; [25],100
same,"Plant response rating, Rice (Flood)",rice,0
same,"Plant response rating, Horseweed",horseweed; [24],90
same,"Plant response rating, Horseweed",horseweed; [25],70
same,"Plant response rating, Kochia",kochia [18],100
same,Kochia plant response rating,kochia [18],70
same,"Plant response rating, Barnyardgrass",barnyardgrass [19]; [24],30
same,"Plant response rating, Barnyardgrass",barnyardgrass [19]; [25],60
same,"Plant response rating, Soybean",soybean [20],100
same,Soybean plant response rating,soybean [20],70
same,"Plant response rating, Corn",corn [21]; [24],50
same,"Plant response rating, Corn",corn [21]; [25],80
same,"Plant response rating, Ragweed",ragweed [22]; [24],70
same,"Plant response rating, Ragweed",ragweed [22]; [25],70
same,"Plant response rating, Oat, Wild","oat, wild [23]; [24]",10
same,"Plant response rating, Oat, Wild","oat, wild [23]; [25]",90
